Read-outs that look alike come from different tables or passages of the source.
How the values were obtained:
[1] = molecular target: c-Kit kinase (Homo sapiens (Human), UniProt P10721); experiment: c-Kit kinase biochemical activity assay (AlphaScreen, biotin-(E4Y)10 phosphorylation)
Experimental: In one assay the biochemical activity IC50 values are determined with respect to inhibition of c-Kit kinase activity, where inhibition of phosphorylation of a peptide substrate is measured as a function of compound concentration. Compounds to be tested are dissolved in DMSO to a concentration of 20 mM. These are diluted 30 μL into 120 μL of DMSO (4 mM) and 1 μL is added to an assay plate. These are then serially diluted […] (50 μL to 100 μL DMSO) for a total of 8 points. Plates are prepared such that each kinase reaction is 20 μL in 1× kinase buffer (25 mM HEPES, pH 7.5, 2 mM MgCl2, 2 mM MnCl2, 0.01% Tween-20, 1 mM DTT, 0.01% BSA), 5% DMSO and 100 μM ATP. Substrate is 30 nM biotin-(E4Y)10 (Millipore). C-kit kinase (obtained from Millipore (#14-559) or is prepared as described in U.S. Patent Application Publication Number 2009/0076046, the disclosure of which is hereby incorporated by reference as it relates to this assay) is at 0.75 ng per sample. After incubation of the kinase reaction for 1 hour at room temperature, 5 μL of donor beads (Streptavidin coated beads (Perkin Elmer Life Science) final concentration 10 μg/mL) in stop buffer (25 mM Hepes pH 7.5, 100 mM EDTA, 0.01% BSA) is added, the sample is mixed and incubated for 20 minutes at room temperature before adding 5 μL of acceptor beads (PY20 coated beads (Perkin Elmer Life Science) final concentration 10 μg/mL) in stop buffer. The samples are incubated for 60 minutes at room temperature and the signal per well is read on Envision reader. […] The signal vs. compound concentration is used to determine the IC50.

[2] = molecular target: BCR-FMS/BaF3 cells (Homo sapiens, UniProt P07333); experiment: BCR-FMS/BaF3 cell proliferation assay (ATPlite); format: cell-based; conditions: for BCR/BaF3 selectivity (Kit IC50/Fms IC50): Kit IC50/Fms IC50, BCR-KIT/BaF3 vs BCR-FMS/BaF3 cells; for IC50: BCR-FMS/BaF3 cells
Sequence of BCR-FMS/BaF3 cells (P07333 20-972 limits assumed, change not shown): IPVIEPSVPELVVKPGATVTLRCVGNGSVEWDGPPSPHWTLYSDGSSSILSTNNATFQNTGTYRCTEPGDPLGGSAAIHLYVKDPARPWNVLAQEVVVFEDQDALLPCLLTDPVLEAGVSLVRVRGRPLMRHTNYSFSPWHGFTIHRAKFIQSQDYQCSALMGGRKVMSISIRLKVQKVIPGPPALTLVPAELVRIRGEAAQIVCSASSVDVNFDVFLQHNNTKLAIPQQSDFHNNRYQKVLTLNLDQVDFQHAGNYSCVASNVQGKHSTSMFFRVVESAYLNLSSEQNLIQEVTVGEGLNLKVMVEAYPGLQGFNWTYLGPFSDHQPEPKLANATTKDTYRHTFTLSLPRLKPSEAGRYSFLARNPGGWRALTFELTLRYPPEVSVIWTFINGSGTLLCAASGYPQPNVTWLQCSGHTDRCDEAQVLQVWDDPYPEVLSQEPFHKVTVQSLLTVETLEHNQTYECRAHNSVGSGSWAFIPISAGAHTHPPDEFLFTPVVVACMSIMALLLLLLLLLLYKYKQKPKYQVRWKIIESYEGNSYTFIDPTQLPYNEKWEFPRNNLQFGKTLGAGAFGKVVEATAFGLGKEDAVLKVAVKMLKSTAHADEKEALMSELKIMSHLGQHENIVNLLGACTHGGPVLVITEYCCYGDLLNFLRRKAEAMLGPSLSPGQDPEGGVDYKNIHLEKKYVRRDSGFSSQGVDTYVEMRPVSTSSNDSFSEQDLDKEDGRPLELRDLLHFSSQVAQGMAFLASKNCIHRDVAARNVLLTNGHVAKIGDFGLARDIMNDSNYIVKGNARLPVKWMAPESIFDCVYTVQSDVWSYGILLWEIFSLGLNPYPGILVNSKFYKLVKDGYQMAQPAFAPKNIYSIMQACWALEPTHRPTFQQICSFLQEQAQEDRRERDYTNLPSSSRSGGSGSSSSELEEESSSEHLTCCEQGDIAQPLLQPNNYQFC
Outline: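 Proliferation read by ATPlite luminescence after 3 days' exposure (37 °C, 5% CO2) to compound in 1:3 dilutions, eight points, maximum 10 μM final, DMSO control.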

[3] = molecular target: CYP1A2 (Homo sapiens (Human), UniProt P05177); experiment: CYP enzyme inhibition, fluorescent substrate
Sequence of CYP1A2 (P05177 whole entry): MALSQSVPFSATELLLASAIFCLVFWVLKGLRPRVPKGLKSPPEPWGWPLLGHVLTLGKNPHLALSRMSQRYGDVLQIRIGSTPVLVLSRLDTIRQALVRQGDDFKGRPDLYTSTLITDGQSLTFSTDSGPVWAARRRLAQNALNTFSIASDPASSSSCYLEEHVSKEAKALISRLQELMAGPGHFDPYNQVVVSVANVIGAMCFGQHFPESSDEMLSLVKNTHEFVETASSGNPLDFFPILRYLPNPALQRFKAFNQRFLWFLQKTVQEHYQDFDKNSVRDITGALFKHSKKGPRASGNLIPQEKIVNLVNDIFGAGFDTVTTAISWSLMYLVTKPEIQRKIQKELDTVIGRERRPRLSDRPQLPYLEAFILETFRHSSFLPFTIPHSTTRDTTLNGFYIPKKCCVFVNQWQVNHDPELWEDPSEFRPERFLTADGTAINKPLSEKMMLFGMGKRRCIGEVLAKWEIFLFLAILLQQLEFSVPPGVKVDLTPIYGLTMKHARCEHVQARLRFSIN
Experimental: (§1) CYP (Cytochrome P450) enzymes are the major drug metabolizing enzymes present in the liver. The inhibition of CYP enzyme activity (IC50) for each of CYP1A2, CYP2C19, CYP2C9, CYP2D6, CYP3A4(BFC) and CYP3A4(BQ) is determined for compounds, where inhibition of metabolism of a known substrate leads to a decrease in the fluorescence of the metabolized product. The fluorescence of the product is monitored as a function of compound concentration.
(§2) Compounds are dissolved in DMSO to a concentration of 100 mM. These are diluted 1 μL into 82 μL of acetonitrile. An 11 μL aliquot of this solution is then added to 204 μL of cofactor mix (1.3% NADPH Regeneration system Solution A, 1.04% NADPH Regeneration system Solution B from BD Biosciences, 5% acetonitrile and 0.05% DMSO). These are then serially diluted 1:1 (160 μL to 160 μL co-factor mix) for a total of 10 points. A 10 μL aliquot of this final mixture is dispensed into 384 well assay plates and incubated for 10 minutes at 37° C. Enzyme and substrate mix (10 μL; […] CYP1A2/5 μM CEC; 1.0 μmol CYP2C9/75 μM MFC; […] CYP2C19/25 μM CEC; 1.5 μmol CYP2D6/1.5 μM AMMC; 1.0 μmol CYP3A4/50 μM BFC; or 1.0 μmol CYP3A4/40 μM BQ) is added to these assay plates. Assay plates are incubated at 37° C. (CYP1A2-15 min; CYP2C9-45 min; CYP2C19, 2D6 and 3A4-30 min) and read in a Tecan Safire 2 plate reader (CYP1A2, 2C19 and 3A4 409 ex/460 em; CYP2C9 and 2D6409 ex/530 em). The signal versus compound concentration is used to determine the IC50. The enzymes and substrates for this assay are obtained from BD Biosciences.

[4] = molecular target: CYP2C19 (Homo sapiens (Human), UniProt P33261); experiment: CYP enzyme inhibition, fluorescent substrate
Sequence of CYP2C19 (P33261 whole entry): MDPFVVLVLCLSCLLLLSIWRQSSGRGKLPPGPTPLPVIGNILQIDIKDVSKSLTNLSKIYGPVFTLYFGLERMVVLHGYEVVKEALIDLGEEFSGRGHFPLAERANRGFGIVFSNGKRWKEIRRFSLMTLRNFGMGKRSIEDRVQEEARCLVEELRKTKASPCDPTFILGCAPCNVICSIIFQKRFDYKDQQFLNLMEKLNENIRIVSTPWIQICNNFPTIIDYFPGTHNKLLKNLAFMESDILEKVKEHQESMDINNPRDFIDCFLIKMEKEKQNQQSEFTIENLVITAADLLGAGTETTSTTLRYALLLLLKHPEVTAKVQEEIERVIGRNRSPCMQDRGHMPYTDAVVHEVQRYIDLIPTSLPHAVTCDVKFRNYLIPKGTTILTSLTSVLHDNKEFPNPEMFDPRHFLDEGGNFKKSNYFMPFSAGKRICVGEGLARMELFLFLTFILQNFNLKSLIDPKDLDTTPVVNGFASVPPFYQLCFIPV
Experimental: as §1, §2

[5] = molecular target: CYP2C9 (Homo sapiens (Human), UniProt P11712); experiment: CYP enzyme inhibition, fluorescent substrate
Sequence of CYP2C9 (P11712 whole entry): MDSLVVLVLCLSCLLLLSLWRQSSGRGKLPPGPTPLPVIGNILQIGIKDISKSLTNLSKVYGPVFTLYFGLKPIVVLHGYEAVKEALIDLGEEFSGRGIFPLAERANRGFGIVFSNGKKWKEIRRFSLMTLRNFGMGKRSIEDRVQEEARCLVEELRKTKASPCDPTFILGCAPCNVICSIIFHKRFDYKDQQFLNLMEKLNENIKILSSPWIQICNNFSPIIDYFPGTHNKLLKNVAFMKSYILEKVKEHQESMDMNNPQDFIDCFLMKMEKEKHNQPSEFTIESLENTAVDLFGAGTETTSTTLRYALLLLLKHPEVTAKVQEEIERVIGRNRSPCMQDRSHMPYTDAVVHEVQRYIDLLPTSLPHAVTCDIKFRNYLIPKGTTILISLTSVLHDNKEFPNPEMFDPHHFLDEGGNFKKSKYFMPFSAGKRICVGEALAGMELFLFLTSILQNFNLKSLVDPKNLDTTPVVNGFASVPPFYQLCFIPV
Experimental: as §1, §2

[6] = molecular target: CYP3A4(BFC) (Homo sapiens (Human), UniProt P08684); experiment: CYP enzyme inhibition, fluorescent substrate
Sequence of CYP3A4(BFC) (P08684 whole entry): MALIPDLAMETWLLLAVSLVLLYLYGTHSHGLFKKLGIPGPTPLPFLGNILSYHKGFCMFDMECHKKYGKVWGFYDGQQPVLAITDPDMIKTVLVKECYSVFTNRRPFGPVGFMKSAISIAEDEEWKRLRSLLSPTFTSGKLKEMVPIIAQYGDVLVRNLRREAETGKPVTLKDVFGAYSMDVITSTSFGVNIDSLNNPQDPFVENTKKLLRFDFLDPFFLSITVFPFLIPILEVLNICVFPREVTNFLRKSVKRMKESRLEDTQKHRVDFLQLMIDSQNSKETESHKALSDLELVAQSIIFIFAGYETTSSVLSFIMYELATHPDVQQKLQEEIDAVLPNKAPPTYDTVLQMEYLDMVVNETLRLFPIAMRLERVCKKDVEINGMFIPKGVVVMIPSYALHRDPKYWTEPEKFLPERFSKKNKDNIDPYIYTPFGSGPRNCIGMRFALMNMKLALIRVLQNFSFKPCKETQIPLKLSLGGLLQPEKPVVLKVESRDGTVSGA
Experimental: as §1, §2

[7] = molecular target: CYP2D6 (Homo sapiens (Human), UniProt P10635); experiment: CYP enzyme inhibition, fluorescent substrate; conditions: read-out: Cyp IC50 (μM) 2D6
Sequence of CYP2D6 (P10635 whole entry): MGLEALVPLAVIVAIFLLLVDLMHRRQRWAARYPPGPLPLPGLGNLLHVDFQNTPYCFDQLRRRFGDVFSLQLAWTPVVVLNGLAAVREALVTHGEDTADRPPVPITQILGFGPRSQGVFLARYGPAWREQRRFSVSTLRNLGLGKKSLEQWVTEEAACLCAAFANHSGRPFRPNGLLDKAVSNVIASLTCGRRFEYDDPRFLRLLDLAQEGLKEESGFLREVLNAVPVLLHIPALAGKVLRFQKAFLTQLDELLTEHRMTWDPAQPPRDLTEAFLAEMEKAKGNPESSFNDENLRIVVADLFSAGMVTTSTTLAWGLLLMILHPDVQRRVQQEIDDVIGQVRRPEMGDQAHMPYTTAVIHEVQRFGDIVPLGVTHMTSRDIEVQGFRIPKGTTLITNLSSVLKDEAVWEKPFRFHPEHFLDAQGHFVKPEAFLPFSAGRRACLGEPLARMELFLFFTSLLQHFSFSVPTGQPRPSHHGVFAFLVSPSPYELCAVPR
Experimental: as §1, §2

[8] = read-out: BCR/BaF3 (IC50 μM) Fms
[9] = read-out: Cyp IC50 (μM) 3A4(BFC), BFC substrate
[10] = human, CYP2C9 enzyme (BD Biosciences), 45 min

Sequence of c-Kit kinase (P10721 26-976): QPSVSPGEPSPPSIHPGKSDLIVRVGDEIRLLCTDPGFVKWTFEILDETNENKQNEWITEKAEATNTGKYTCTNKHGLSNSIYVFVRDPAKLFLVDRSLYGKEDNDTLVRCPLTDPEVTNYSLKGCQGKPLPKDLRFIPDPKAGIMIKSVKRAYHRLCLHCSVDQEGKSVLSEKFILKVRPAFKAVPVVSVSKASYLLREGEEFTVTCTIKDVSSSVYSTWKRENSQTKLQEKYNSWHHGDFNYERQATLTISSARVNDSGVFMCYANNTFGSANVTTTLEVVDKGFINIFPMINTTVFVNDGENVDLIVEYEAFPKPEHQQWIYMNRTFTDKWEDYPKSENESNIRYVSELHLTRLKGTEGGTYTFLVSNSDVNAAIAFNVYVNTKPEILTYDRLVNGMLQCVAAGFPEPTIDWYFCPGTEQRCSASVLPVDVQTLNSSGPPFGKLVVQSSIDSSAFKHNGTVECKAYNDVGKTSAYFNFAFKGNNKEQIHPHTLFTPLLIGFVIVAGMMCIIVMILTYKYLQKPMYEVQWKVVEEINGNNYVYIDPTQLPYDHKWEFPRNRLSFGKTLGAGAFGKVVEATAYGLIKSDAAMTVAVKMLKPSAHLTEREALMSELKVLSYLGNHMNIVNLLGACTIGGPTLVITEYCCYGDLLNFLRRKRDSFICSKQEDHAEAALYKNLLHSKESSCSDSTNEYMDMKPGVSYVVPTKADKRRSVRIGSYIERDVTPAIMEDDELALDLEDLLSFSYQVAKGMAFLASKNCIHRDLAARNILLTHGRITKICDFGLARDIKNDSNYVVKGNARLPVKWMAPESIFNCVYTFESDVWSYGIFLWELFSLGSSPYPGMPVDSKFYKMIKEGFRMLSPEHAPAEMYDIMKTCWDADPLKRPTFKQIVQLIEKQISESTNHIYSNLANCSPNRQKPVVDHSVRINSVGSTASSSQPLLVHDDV

| IC50 [3] | Compound | IC50 [1] | BCR/BaF3 selectivity (Kit IC50/Fms IC50) [2] | IC50 [2, 8] | IC50 ([2]; read-out: Cell based (IC50 μM) BCR/BaF3 (Fms), 3 days) | IC50 ([3]; human, 15 min) | IC50 ([4]; read-out: Cyp IC50 (μM) 2C19) | IC50 [5] | IC50 [6, 9] | IC50 [6] | IC50 [4] | IC50 ([5]; read-out: Cyp IC50 (μM) 2C9) | IC50 [7] | IC50 [5, 10] |
| --- | --- | --- | --- | --- | --- | --- | --- | --- | --- | --- | --- | --- | --- | --- |
| – | COc1ccc(CNc2ncc(Cc3c[nH]c4ncc(Cl)cc34)cn2)cn1 [Compound P-2038, [5-(5-Chloro-1H-pyrrolo[2,3-b]pyridin-3-ylmethyl)-pyrimidin-2-yl]-(6-methoxy-pyridin-3-ylmethyl)-amine] | > 0.1 µM | >20 | < 0.1 µM | < 0.1 µM | > 10 µM | > 10 µM | 5 to 10 µM | > 10 µM | – | – | – | – | – |
| – | COc1cc(CNc2ccc(Cc3c[nH]c4ncc(C)cc34)c(F)n2)c(F)cn1 [Compound P-2071, (5-Fluoro-2-methoxy-pyridin-4-ylmethyl)-[6-fluoro-5-(5-methyl-1H-pyrrolo[2,3-b]pyridin-3-ylmethyl)-pyridin-2-yl]-amine] | > 0.1 µM | >20 | > 0.1 µM | – | > 10 µM | > 10 µM | 5 to 10 µM | – | 5 to 10 µM | – | – | – | – |
| – | COc1ncccc1CNc1ccc(Cc2c[nH]c3ncccc23)c(F)n1 [Compound P-2045, [6-Fluoro-5-(1H-pyrrolo[2,3-b]pyridin-3-ylmethyl)-pyridin-2-yl]-(2-methoxy-pyridin-3-ylmethyl)-amine] | > 0.1 µM | >20 | < 0.1 µM | – | > 10 µM | – | – | – | 5 to 10 µM | 5 to 10 µM | > 10 µM | – | – |
| 5 to 10 µM | Cc1cc(CNc2ccc(Cc3c[nH]c4ncc(Cl)cc34)c(F)n2)ccn1 [Compound P-2075, [5-(5-Chloro-1H-pyrrolo[2,3-b]pyridin-3-ylmethyl)-6-fluoro-pyridin-2-yl]-(2-methyl-pyridin-4-ylmethyl)-amine] | > 0.1 µM | – | – | – | – | < 5 µM | – | < 5 µM | – | – | < 5 µM | > 10 µM | – |
| – | Cn1cc(F)cc(CNc2ncc(Cc3c[nH]c4ncc(Cl)cc34)cn2)c1=O [Compound P-2157, 3-{[5-(5-Chloro-1H-pyrrolo[2,3-b]pyridin-3-ylmethyl)-pyrimidin-2-ylamino]-methyl}-5-fluoro-1-methyl-1H-pyridin-2-one] | > 0.1 µM | >20 | < 0.1 µM | – | > 10 µM | – | – | – | 5 to 10 µM | – | – | > 10 µM | > 10 µM |
| – | COc1ncccc1CNc1ccc(Cc2c[nH]c3ncc(C)cc23)c(F)n1 [Compound P-2052, [6-Fluoro-5-(5-methyl-1H-pyrrolo[2,3-b]pyridin-3-ylmethyl)-pyridin-2-yl]-(2-methoxy-pyridin-3-ylmethyl)-amine] | > 0.1 µM | >20 | < 0.1 µM | – | > 10 µM | – | 5 to 10 µM | – | 5 to 10 µM | – | – | > 10 µM | – |
| – | COc1ccc(CNc2ccc(Cc3c[nH]c4ncc(C)cc34)c(F)n2)c(OC)n1 [Compound P-2097, (2,6-Dimethoxy-pyridin-3-ylmethyl)-[6-fluoro-5-(5-methyl-1H-pyrrolo[2,3-b]pyridin-3-ylmethyl)-pyridin-2-yl]-amine] | > 0.1 µM | >20 | < 0.1 µM | – | > 10 µM | – | – | – | 5 to 10 µM | – | – | > 10 µM | < 5 µM |
